Experimental data taken from paper PMC8786250, “Comparison of chemical profiles, antioxidation, inhibition of skin extracellular matrix degradation, and anti-tyrosinase activity between mycelium and fruiting body of Cordyceps militaris and Isaria tenuipes” (Pharmaceutical Biology, 2022).
Values after ≈ are worked out from the molar mass of the structure shown.

Key:
[1] = biological target: T1, elastase from porcine pancreas (Sus scrofa, UniProt P00772); assay: spectrophotometric elastase inhibition assay; format: biochemical; details: read-out: IC50 (mg/mL) / Elastase inhibition (converted)
T1 construct: gene CELA1; native enzyme from pancreas, lyophilised powder (Sigma-Aldrich); mature form
T1 sequence (P00772 27-266): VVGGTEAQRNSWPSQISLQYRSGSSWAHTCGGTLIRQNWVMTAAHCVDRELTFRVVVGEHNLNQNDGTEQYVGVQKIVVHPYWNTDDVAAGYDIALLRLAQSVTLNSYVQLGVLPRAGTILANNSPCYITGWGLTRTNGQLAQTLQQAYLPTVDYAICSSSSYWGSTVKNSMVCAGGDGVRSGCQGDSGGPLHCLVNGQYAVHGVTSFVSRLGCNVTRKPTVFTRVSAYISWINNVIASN
Text: spectrophotometric elastase inhibition assay on elastase from porcine pancreas

[2] = biological target: T2, metalloproteinase-1 (MMP-1) from Clostridium histolyticum (ChC); assay: spectrophotometric MMP-1 (collagenase) inhibition assay; format: biochemical, Hathewaya histolytica; details: substrate FALGPA; positive control
T2 construct: gene colG; native collagenase preparation (Sigma-Aldrich)
Text: spectrophotometric MMP-1 (collagenase) inhibition assay on metalloproteinase-1 (MMP-1) from Clostridium histolyticum (ChC)

`O=C(O[C@@H]1Cc2c(O)cc(O)cc2O[C@@H]1c1cc(O)c(O)c(O)c1)c1cc(O)c(O)c(O)c1` [EGCG, epigallocatechin gallate] showed an IC50 [1] of 2.18 µM.
For `CC1(C)CC[C@]2(C(=O)O)CC[C@]3(C)C(=CC[C@@H]4[C@@]5(C)CC[C@H](O)C(C)(C)[C@@H]5CC[C@]43C)[C@@H]2C1` [OA, oleanolic acid], the “IC50 (mg/mL) / MMP-1 inhibition” value [2] was 0.002 ± 0.000 mg/mL (≈ 4.38 µM).
